PMC10951066, “The self-reactive FVIII T cell repertoire in healthy individuals relies on a short set of epitopes and public clonotypes” (Frontiers in Immunology, 2024)

System: CD4 T cells from healthy donors
Assay: HLA restriction and FVIII specificity IFN-γ ELISPOT of T cell lines raised with the pool of 18 peptides (four donors)
Type: cell-based, human
Design: key to Protein specificty: +: positive T cell responses to both the full-length FVIII protein (protein specificity)
Conditions: for intensity (%): four donors, 87 specific T cell lines in total; for Responding donors (%): four healthy donors, T cell lines amplified with pool of 18 FVIII peptides; for HLA restriction (%) DP / HLA restriction (%) DR: percentage of restricted T cell lines, inhibition higher than 50% of ELISPOT count; for HLA restriction (%) DP: anti-HLA-DP (B7/21) 10 μg/ml; for HLA restriction (%) DR: anti-HLA-DR (L243) 10 μg/ml; for Protein specificty: recognition of rFVIII loaded on autologous DCs by peptide-specific T cell lines
Procedure: T cells were incubated with autologous DCs alone (control) or with DCs incubated with rFVIII (0.2 µM), ovalbumin (3 µM), and KLH (1 µM) or PBMCs for FVIII peptides (10 µg/ml) in MultiScreen 96-well plates (Merck Millipore) previously coated with 2.5 µg/mL of anti-human IFN-γ monoclonal antibody (mAb; 1-D1K; Mabtech). The T cell lines and APCs were plated at equal number for both stimulated and unstimulated control conditions. […] The spot number was determined by using the ELISPOT Reader System (Autoimmun Diagnostika, Ebinger, Germany). HLA restriction was assessed using monoclonal antibodies (10 μg/ml) specific to HLA-DP (B7/21), HLA-DQ (SPVL3), or HLA-DR (L243).
Based on the T cell epitope prediction software NetMHCpan4.0 ([23]), we selected 63 20-mer peptides that are predicted for their ability to bind promiscuously, with a percentile score below 10%, at least four HLA class II molecules from a selection of 15 preponderant HLA-DR alleles in our panel (as shown in ST1). The predicted peptides spread all along the full-length FVIII sequence and account for more than 50% of its amino acid coverage. A total of 16 healthy donors with unrelated HLA typing (ST2) were used as sources of T cells to identify FVIII-specific CD4 T cell epitopes. Specific T cell lines were generated by in vitro T cell culture using FVIII and KLH. The peptide specificity of the T cell lines raised against FVIII was assessed by two independent IFN-γ ELISPOT using peptide pools and individual peptides. All donors responded to rFVIII with a total of 409 identified rFVIII-specific T cell lines (Figure 4A). The mean of CD4 T cell precursors was 6.5 cells/M (Figure 4B). Each of the 63 FVIII peptides induced a T cell response in at least one of the donors tested, among the 16 healthy donors tested, with 872 peptide-specific T cell lines identified (Figure 4C). The CD4 T cell epitopes identified were ranked based on their donor coverage capacity (Figure 4D) and response intensity (Figure 4E). Furthermore, 18 out of 63 FVIII T cell epitopes were responsible for 50% of the total T cell response and 100% of the donor coverage. These immunoprevalent epitopes are located in the A1, A3, C1, and C2 domains of the FVIII protein (ST3). Furthermore, four independent healthy donors were used as sources of T cells to characterize the HLA restriction and to assess the reactivity of T cell lines generated with the 18 peptides toward rFVIII. T cell lines were amplified in vitro for 28 days through stimulation with the pool of 18 peptides and then tested through IFN-γ ELISPOT. All four healthy donors tested responded to the pool of 18 FVIII peptides selected, with a total of 87 specific T cell lines identified. Moreover, 16 out of 18 FVIII peptides in the pool generated a specific T cell response among the four donors. A total of 14 of the T cell peptides were tested for recognition of rFVIII-loaded on autologous DCs, and it was confirmed that they were part of the naturally processed FVIII peptides. HLA restriction was assessed by introducing anti-HLA-DR, anti-HLA-DP, and anti-HLA-DQ antibodies. None of the peptides tested was HLA-DQ restricted. Eight peptides were exclusively HLA-DR-restricted, one peptide was HLA-DP, and seven were promiscuously presented on both HLA-DR and HLA-DP molecules (ST4). […] Furthermore, the 18 FVIII peptides selected were ulteriorly tested in an in vitro binding assay to six HLA-DRB1 molecules (as described in ST5).
Four healthy donors were used as the source of CD4 T cells, which were amplified in vitro with the pool of 18 FVIII peptides selected for study. In an initial IFN-γ ELISPOT assay, we screened each of the 18 peptides individually to identify any positive T cell responses to both the full-length FVIII protein (protein specificity) as well as the specific peptide inducing the response. […]

Row | Sequence | intensity (%) | Responding donors (%) | HLA restriction (%) DP [%] | HLA restriction (%) DR [%] | Protein specificty
1 | ATRRYYLGAVELSWDYMQSD [P20-39, 20-mer FVIII peptide, A1 domain] | 4,6% | 50 | 37 | 63 | +
2 | DHLFNIAKPRPPWMGLLGPT [P75-94, 20-mer FVIII peptide, A1 domain] | 1,1% | 25 | 100 | – | +
3 | HPQSWVHQIALRMEVLGCEA [P2328-2347, 20-mer FVIII peptide, C2 domain] | 1,1% | 25 | – | 100 | +
4 | INGYIMDTLPGLVMAQDQRI [P1940-1959, 20-mer FVIII peptide, A3 domain] | 1,1% | 25 | – | 100 | –
5 | KARLHLQGRSNAWRPQVNNP [P2226-2245, 20-mer FVIII peptide, C2 domain] | 12,6% | 50 | 23 | 77 | +
6 | KEPFSWIKVDLLAPMIIHGI [P2084-2103, 20-mer FVIII peptide, C1 domain] | 19,5% | 100 | 47 | 53 | +
7 | KKEEYKMALYNLYPGVFETV [P1986-2005, 20-mer FVIII peptide, A3 domain] | 1,1% | 25 | – | 100 | +
8 | KLARLHYSGSINAWSTKEPF [P2068-2087, 20-mer FVIII peptide, C1 domain] | 1,1% | 25 | – | 100 | –
9 | LGQFLLFCHISSHQHDGMEA [P322-341, 20-mer FVIII peptide, A1 domain] | 4,6% | 50 | – | 100 | +
10 | LLTRYLRIHPQSWVHQIALR [P2320-2339, 20-mer FVIII peptide, C2 domain] | 2,3% | 25 | 25 | 75 | +
11 | LSHVDLVKDLNSGLIGALLV [P178-197, 20-mer FVIII peptide, A1 domain] | 4,6% | 75 | 50 | 50 | +
12 | PPIIARYIRLHPTHYSIRST [P2161-2180] | 9,2% | 75 | 19 | 81 | +
13 | RHYFIAAVERLWDYGMSSSP [P1715-1734, 20-mer FVIII peptide, A3 domain] | 18,4% | 75 | – | 100 | +
14 | SLYISQFIIMYSLDGKKWQT [P2114-2133, 20-mer FVIII peptide, C1 domain] | 3,4% | 50 | 33 | 66 | +
15 | VHSIFLEGHTFLVRNHRQAS [P285-304, 20-mer FVIII peptide, A1 domain] | 3,4% | 50 | – | 100 | +
16 | YDTVVITLKNMASHPVSLHA [P100-119, 20-mer FVIII peptide, A1 domain] | 8% | 50 | – | 100 | +
